Columns and labels:
Format in all cases: in vivo, human
MPO = assay: Study DG-031-204: plasma MPO; settings: for Serum MPO (% change from baseline), mean response: after 4 weeks of DG-031 administration
Experimental: (§1) An additional single site, open label study was carried out to obtain biomarker and safety data on additional DG-031 doses (i.e., 1000 mg and 1500 mg). This study examined the safety, tolerability and dose-related effects of DG-031 on inflammatory biomarkers including: LTB4, hsCRP, and MPO. A total of 119 patients with a prior history of CAD and MI were randomized to receive either 1000 mg DG-031 (500 mg BID) or 1500 mg DG-031 (500 mg TID) daily for 4-6 weeks. Treatment with DG-031 in addition to the subject's standard care, medication, and treatment, was prescribed by the patient's cardiologist. A majority of the subjects received statin therapy before, during and after the study. Follow-up assessments were performed 2 weeks after the end of study drug administration.
(§2) The biomarkers were analyzed as described in Example 1. Statistical analysis of the data was carried out using a one-sample t-test on change from baseline with a two-sided nominal significance level of 0.050. Biomarker concentrations were log-transformed and a simple last observation carried forward (LOCF) scheme was used to impute missing observations.
Plasma MPO concentration was measured weekly. MPO measurements in ionomycin-stimulated whole blood were also measured in a subset of patients at 4 weeks.

hsCRP = assay: Study DG-031-204: hsCRP; settings: after 4 weeks
Experimental: as §1, §2
Additionally, hsCRP was measured weekly and tended to decrease in the 1000 mg treatment group. […]

LDL-C = assay: Study DG-031-204: LDL-C; settings: for LDL-C increase, mean change from baseline: after 4 weeks
Experimental: as §1, §2
LDL-C was measured weekly after administration of DG-031 500 mg BID or 500 mg TID. The mean change from baseline after 4 weeks of treatment was an increase of 9% (p=0.004; n=52) for 500 mg BID and an increase of 9% (p<0.001; n=58) for the 500 TID group. […] The LDL-C effect appeared to increase over time and tended toward baseline values at the 2-week follow up visit. A preliminary exposure-response analysis of data from studies DG-031-201, DG-031-203, and DG-031-204 supported a dose related increase in LDL-C.

[1] = Study DG-031-204: creatine kinase; settings: 500 mg BID or TID
Experimental: as §1
Liver function tests (AST, ALT, GGT) were assessed weekly during study drug administration and two weeks after dosing. […] Serum creatinine (Cr) was measured weekly during study drug administration and two weeks after dosing. In both the 500 mg BID and 500 mg TID treatment groups, mean serum Cr concentrations increased 4-5% relative to baseline levels. At the 2-week follow up visit, mean serum Cr returned to baseline in the cohort treated for 4 weeks, but remained elevated in the group treated for 6 weeks. Creatine kinase (CK) measurements were obtained weekly during study drug administration and two weeks after dosing.

[2] = Population pharmacokinetic analysis (studies DG-031-201, DG-031-203)
Experimental: Preliminary population pharmacokinetic (PK) analysis was also carried out based on clinical studies DG-031-201 and DG-031-203. Based on visual inspection of the individual and mean time course of DG-031 concentrations, a simple one compartmental disposition model following first order oral absorption, and an absorption lag time was fit to the data. A mixed effects modeling approach was used. The pharmacokinetic model parameters (fixed effects) included oral clearance (CL), distribution volume (V), oral absorption (ka), and absorption lag (tiag). The statistical model includes inter-individual random effects as well as a residual error term. All inter-subject random effect parameters (it's) and residual error terms (&) are assumed to be normally distributed with mean of zero and variance o2 and a2, respectively. Random effects on all pharmacokinetic model parameters were explored. Maximum likelihood estimates of the structural (0's) and statistical model parameters were estimated using an approximation to the mixed effect log-likelihood as implemented in the NONMEM program (NONMEM Version Vi).
The influence of patient characteristics (covariates) on pharmacokinetic parameters was explored. Age, gender, body weight, and CrCL (creatinine clearance) were included in the model as covariates if warranted.
Model selection will be done on the basis of the log-likelihood criterion (p<0.05) and visual inspection of goodness-of-fit plots. The difference in −2 times the log of the likelihood (−2LL) between a full and reduced model is asymptotically χ^2 distributed with degrees of freedom equal to the difference in number of parameters between the two models. For instance, a decrease of more than 3.84 in −2LL is considered significant at the p<0.05 level for 1 additional parameter. Standard errors of the parameter estimates are approximated using the asymptotic covariance matrix.

SMILES: O=C(O)[C@@H](c1ccc(OCc2ccc3ccccc3n2)cc1)C1CCCC1 [DG-031, (R)-(+)-alpha-cyclopentyl-4-(2-quinolinylmethoxy)-Benzeneacetic acid]
- Plasma MPO concentrations, change from baseline (MPO; 500 mg BID or TID, measured weekly): No changes from baseline
- Serum MPO (% change from baseline), mean response (MPO; 1000 mg (500 mg BID)): +3%
- Serum MPO (% change from baseline), mean response (MPO; 1500 mg (500 mg TID)): −12%
- hsCRP reduction, mean change from baseline (hsCRP; 1000 mg treatment group): 20%
- hsCRP reduction, mean change from baseline (hsCRP; 1500 mg treatment group): 3%
- LDL-C increase, mean change from baseline (LDL-C; 500 mg BID): 9%
- LDL-C increase, mean change from baseline (LDL-C; 500 mg TID): 9%
- LDL-C percent change from baseline after 4 weeks of DG-031 administration, Mean (LDL-C; dose 250): 2.3%
- LDL-C percent change from baseline after 4 weeks of DG-031 administration, Mean (LDL-C; dose 500): 5.0%
- LDL-C percent change from baseline after 4 weeks of DG-031 administration, Mean (LDL-C; dose 750): 7.7%
- LDL-C percent change from baseline after 4 weeks of DG-031 administration, Mean (LDL-C; dose 1000): 10.3%
- LDL-C percent change from baseline after 4 weeks of DG-031 administration, Mean (LDL-C; dose 1250): 13.0%
- LDL-C percent change from baseline after 4 weeks of DG-031 administration, Mean (LDL-C; dose 1500): 15.7%
- Mean CK concentrations [1]: No adverse trends
- PK linearity ([2]; 250 mg to 1500 mg administered daily): linear PK
- oral CL ([2]; 90 kg patient): 5.86 L/h
- Accumulation ([2]; BID dosing): 12%
- V (distribution volume) ([2]; human, plasma, oral): 32 L
- V, inter-subject CV % ([2]; human, plasma, oral): 44%
- half-life ([2]; human, plasma, oral, MI patients, estimated, read-out: Terminal elimination half-life (converted)): ~4 h
- Effect of body weight on CL ([2]; in vivo): minor effects

From US20090030037A1, “Sustained Release Formulation and Dosing Schedules of Leukotriene Synthesis Inhibitor for Human Therapy” (deCODE Genetics ehf., priority 2005, published 2009)
